According to US20210032253A1, “PYRAZOLO[1,5-A][1,3,5]TRIAZINE-2-AMINE DERIVATIVE, PREPARATION METHOD THEREFOR AND MEDICAL USE THEREOF” (JIANGSU HENGRUI MEDICINE CO., LTD., priority 2018, published 2021):

Legend:
Type in all cases: cell-based
[1] = biological target: T1, adenosine A2a receptor (A2aR) (Homo sapiens, UniProt P29274); experiment: Inhibition of adenosine A2a receptor cAMP signaling pathway in CHO-K1/A2aR cells (HTRF cAMP dynamic 2 kit); conditions: Table 1, 20 nM ethylcarbazole
T1 construct: expressed in transfected cells; host or cells: CHO-K1
Excerpt: (§1) Test Example 1. Determination of the inhibitory activities of the compounds of the present disclosure on the adenosine A2a receptor (A2aR) cAMP signaling pathway, the adenosine A1 receptor (A1R) cAMP signaling pathway and the adenosine A3 receptor (A3R) cAMP signaling pathway.
(§2) The inhibitory activities of the compounds of the present disclosure on the adenosine A2a receptor (A2aR) cAMP signaling pathway, the adenosine A1 receptor cAMP signaling pathway and the adenosine A3 receptor cAMP signaling pathway were determined by the following methods. The experimental method is briefly described as follows:
CHO-K1/A2aR cells were cultured in DMEM/F12 medium containing 10% fetal bovine serum and 800 μg/mL Zeocin™. The cells were digested with the cell dissociation buffer during the experiment. The cells were resuspended in the HBSS buffer containing 20 mM HEPES and 0.1% bovine serum albumin and counted, and the cell density was adjusted to 10^6 cells/mL. In 384-well plates, each well was added with 5 μL of the cell suspension, and 2.5 µL of test compounds (4× concentration) formulated with the HBSS buffer containing 20 mM HEPES, 0.1% bovine serum albumin, 54 μM rolipram and 2.7 U/mL adenosine deaminase, and the plates were incubated at room temperature for 30 minutes. Each well was then added with 2.5 μL of ethylcarbazole (4× concentration) formulated with the balanced salt buffer containing 20 mM HEPES, 0.1% bovine serum albumin, 54 μM rolipram and 2.7 U/mL adenosine deaminase, and the plates were incubated at room temperature for 30 minutes. The final concentrations of the compounds were: 10000, 2000, 400, 80, 16, 3.2, 0.64, 0.128, 0.0256, 0.00512, and 0.001024 nM. The final concentration of ethylcarbazole was 20 nM. Intracellular cAMP concentration was determined with cAMP dynamic 2 kits. cAMP-d2 and Anti-cAMP—Eu-Cryptate were diluted respectively with the cAMP lysis buffer at a ratio of 1:4. Each well was added with 5 μL of the diluted cAMP-d2, followed by addition of 5 μL of the diluted Anti-cAMP—Eu-Cryptate, and the plates were incubated at room temperature in the dark for 1 hour. The HTRF signal values were read by the PHERAstar multi-function microplate reader.

[2] = biological target: T2, adenosine A1 receptor (A1R) (Homo sapiens, UniProt P30542); experiment: Inhibition of adenosine A1 receptor cAMP signaling pathway in CHO-K1/A1R cells (HTRF cAMP dynamic 2 kit); conditions: Table 2; for IC50: CHO-K1/A1R cells, cAMP, 10 μM forskolin, 10 nM CPA; for IC50 ratio (A1R/A2aR): selectivity A1R over A2aR
T2 construct: expressed in transfected cells; host or cells: CHO-K1
T2 sequence (P30542 1-326): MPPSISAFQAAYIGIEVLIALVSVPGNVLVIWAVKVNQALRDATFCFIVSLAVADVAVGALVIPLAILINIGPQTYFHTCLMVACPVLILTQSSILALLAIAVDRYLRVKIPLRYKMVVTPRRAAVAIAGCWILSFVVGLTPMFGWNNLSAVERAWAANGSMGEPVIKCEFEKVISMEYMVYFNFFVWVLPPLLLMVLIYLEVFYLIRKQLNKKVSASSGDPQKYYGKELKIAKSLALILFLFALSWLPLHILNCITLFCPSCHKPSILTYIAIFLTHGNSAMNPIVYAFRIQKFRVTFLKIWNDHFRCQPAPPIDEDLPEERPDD
Excerpt: as §1, §2
CHO-K1/A1R cells were cultured in DMEMIF12 medium containing 10% fetal bovine serum and 1 mg/mL G418. The cells were digested with the cell dissociation buffer during the experiment. The cells were then resuspended in the HBSS buffer containing 20 mM HEPES and 0.1% bovine serum albumin and counted, and the cell density was adjusted to 5×10^5 cells/mL. In 384-well plates, each well was added with 12.5 μL of the cell suspension, and 6.25 μL of the test compounds (4× concentration) formulated with the HBSS buffer containing 20 mM HEPES, 0.1% bovine serum albumin, 54 μM rolipram and 2.7 U/mL adenosine deaminase, and the plates were incubated at room temperature for 30 minutes. Each well was then added with 6.25 μL of forskolin and N6-cyclopentyladenosine (4× concentration) formulated with the HBSS buffer containing 20 mM HEPES, 0.1% bovine serum albumin, 54 μM rolipram and 2.7 U/mL adenosine deaminase, and the plates were incubated at room temperature for 30 minutes. The final concentrations of the compounds were: 100000, 10000, 1000, 100, 10, 1, 0.1 and 0 nM. The final concentration of forskolin was 10 μM. The final concentration of CPA was 10 nM. Intracellular cAMP concentration was determined with cAMP dynamic 2 kits. cAMP-d2 and Anti-cAMP—Eu-Cryptate were diluted respectively with the cAMP lysis buffer at a ratio of 1:4. Each well was added with 12.5 μL of the diluted cAMP-d2, followed by addition of 12.5 μL of the diluted Anti-cAMP—Eu-Cryptate, and the plates were incubated at room temperature in the dark for 1 hour. The HTRF signal values were read by the PHERAstar multi-function microplate reader.

[3] = biological target: T3, adenosine A3 receptor (A3R) (Homo sapiens, UniProt P0DMS8); experiment: Inhibition of adenosine A3 receptor cAMP signaling pathway in CHO-K1/A3R cells (HTRF cAMP dynamic 2 kit); conditions: Table 3; for IC50: CHO-K1/A3R cells, cAMP, 10 μM forskolin, 5 nM 2Cl-IB-MECA; for IC50 ratio (A3R/A2aR): selectivity A3R over A2aR
T3 construct: expressed in transfected cells; host or cells: CHO-K1
T3 sequence (P0DMS8 1-318): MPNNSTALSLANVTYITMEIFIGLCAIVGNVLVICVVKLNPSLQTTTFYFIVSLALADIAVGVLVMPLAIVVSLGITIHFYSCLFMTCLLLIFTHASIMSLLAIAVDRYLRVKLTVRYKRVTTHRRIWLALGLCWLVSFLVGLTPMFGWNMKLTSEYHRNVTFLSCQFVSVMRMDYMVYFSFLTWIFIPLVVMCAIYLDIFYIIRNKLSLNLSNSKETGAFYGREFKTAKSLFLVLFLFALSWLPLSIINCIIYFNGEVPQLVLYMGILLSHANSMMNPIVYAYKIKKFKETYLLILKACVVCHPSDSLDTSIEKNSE
Excerpt: as §1, §2
CHO-K1/A3R cells were cultured in DMEMIF12 medium containing 10% fetal bovine serum and 10 μg/mL puromycin. The cells were digested with the cell dissociation buffer during the experiment. The cells were resuspended in the HBSS buffer containing 20 mM HEPES and 0.1% bovine serum albumin and counted, and the cell density was adjusted to 5×10^5 cells/mL. In 384-well plates, each well was added with 12.5 μL of the cell suspension, and 6.25 μL of the test compounds (4× concentration) formulated with the HBSS buffer containing 20 mM HEPES, 0.1% bovine serum albumin, 54 μM rolipram and 2.7 U/mL adenosine deaminase, and the plates were incubated at room temperature for 30 minutes. Each well was then added with 6.25 μL of forskolin and 2Cl-IB-MECA (4× concentration) formulated with the HBSS buffer containing 20 mM HEPES, 0.1% bovine serum albumin, […] rolipram and 2.7 U/mL adenosine deaminase, and the plates were incubated at room temperature for 30 minutes. The final concentrations of the compounds were: 100000, 10000, 1000, 100, 10, 1, 0.1 and 0 nM. The final concentration of forskolin was 10 μM. The final concentration of 2Cl-IB-MECA was 5 nM. Intracellular cAMP concentration was determined with cAMP dynamic 2 kits. cAMP-d2 and Anti-cAMP—Eu-Cryptate were diluted respectively with the cAMP lysis buffer at a ratio of 1:4. Each well was added with 12.5 μL of the diluted cAMP-d2, followed by addition of 12.5 μL of the diluted Anti-cAMP—Eu-Cryptate, and the plates were incubated at room temperature in the dark for 1 hour. The HTRF signal values were read by the PHERAstar multi-function microplate reader. IC50 values for the inhibitory activities of the compounds were calculated by Graphpad Prism software, and are shown in Table 3.

T1 sequence (P29274 whole entry): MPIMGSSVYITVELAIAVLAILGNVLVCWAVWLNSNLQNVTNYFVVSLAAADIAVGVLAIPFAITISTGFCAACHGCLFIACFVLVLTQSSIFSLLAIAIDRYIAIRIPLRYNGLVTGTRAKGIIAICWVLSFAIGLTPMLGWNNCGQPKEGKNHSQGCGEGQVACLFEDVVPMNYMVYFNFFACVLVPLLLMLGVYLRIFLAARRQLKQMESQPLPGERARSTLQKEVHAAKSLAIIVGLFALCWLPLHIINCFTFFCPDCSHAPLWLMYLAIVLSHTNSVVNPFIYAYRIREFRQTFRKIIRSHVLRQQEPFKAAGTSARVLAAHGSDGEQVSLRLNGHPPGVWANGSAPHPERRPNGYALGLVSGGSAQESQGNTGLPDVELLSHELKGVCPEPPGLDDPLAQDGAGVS

Cc1ccc(-c2nc(N)nc3c(Cc4cccc(CO)n4)cnn23)o1 [Example 2, (6-((2-Amino-4-(5-methylfuran-2-yl)pyrazolo[1,5-a][1,3,5]triazin-8-yl)methyl)pyridin-2-yl)methanol]
IC50 [1]: 0.87 nM | IC50 [2]: 1100 nM | IC50 ratio (A1R/A2aR) [2]: >10^3 | IC50 [3]: 2420 nM | IC50 ratio (A3R/A2aR) [3]: >10^3

Cc1ccc(-c2nc(N)nc3c(Sc4cccc(CO[C@H]5CCOC5)n4)cnn23)o1 [Example 28, (S)-4-(5-Methylfuran-2-yl)-8-((6-(((tetrahydrofuran-3-yl)oxy)methyl)pyridin-2-yl)thio)pyrazolo[1,5-a][1,3,5]triazin-2-amine]
IC50 [1]: 2.13 nM | IC50 [2]: 595 nM | IC50 ratio (A1R/A2aR) [2]: 279^ | IC50 [3]: 1150 nM | IC50 ratio (A3R/A2aR) [3]: 540^

Cc1ccc(-c2nc(N)nc3c(Cc4cccc(CN5CC6COCC6C5)n4)cnn23)o1 (stereo not drawn) [Example 9, 4-(5-Methylfuran-2-yl)-8-((6-((tetrahydro-1H-furo[3,4-c]pyrrol-5(3H)-yl)methyl)pyridin-2-yl)methyl)pyrazolo[1,5-a][1,3,5]triazin-2-amine]
IC50 [1]: 1.64 nM | IC50 [2]: 483 nM | IC50 ratio (A1R/A2aR) [2]: 294^ | IC50 [3]: 3370 nM | IC50 ratio (A3R/A2aR) [3]: >10^3

Cc1ccc(-c2nc(N)nc3c(Nc4cccc(CN5CC6COCC6C5)n4)cnn23)o1 (stereo not drawn) [Example 30, 4-(5-Methylfuran-2-yl)-N^8-(6-((tetrahydro-1H-furo[3,4-c]pyrrol-5(3H)-yl)methyl)pyridin-2-yl)pyrazolo[1,5-a][1,3,5]triazine-2,8-diamine]
IC50 [1]: 2.87 nM | IC50 [2]: 684 nM | IC50 ratio (A1R/A2aR) [2]: 238^ | IC50 [3]: 7600 nM | IC50 ratio (A3R/A2aR) [3]: >10^3

Cc1ccc(-c2nc(N)nc3c(Cc4cccc(CO[C@H]5CCN(C)C5)n4)cnn23)o1 [Example 15, (S)-4-(5-Methylfuran-2-yl)-8-((6-(((1-methylpyrrolidin-3-yl)oxy)methyl)pyridin-2-yl)methyl) pyrazolo[1,5-a][1,3,5]triazin-2-amine]
IC50 [1]: 1.83 nM | IC50 [2]: 165 nM | IC50 ratio (A1R/A2aR) [2]: 90^ | IC50 [3]: 8970 nM | IC50 ratio (A3R/A2aR) [3]: >10^3

Cc1ccc(-c2nc(N)nc3c(Nc4cccc(CO[C@@H]5CCOC5)n4)cnn23)o1 [Example 21, (R)-4-(5-Methylfuran-2-yl)-N^8-(6-(((tetrahydrofuran-3-yl)oxy)methyl)pyridin-2-yl)pyrazolo[1,5-a][1,3,5]triazine-2,8-diamine]
IC50 [1]: 0.4 nM | IC50 [2]: 609 nM | IC50 ratio (A1R/A2aR) [2]: >10^3 | IC50 [3]: 1700 nM | IC50 ratio (A3R/A2aR) [3]: >10^3

Cc1ccc(-c2nc(N)nc3c(Cc4cccc(COCCF)n4)cnn23)o1 [Example 14, 8-((6-((2-Fluoroethoxy)methyl)pyridin-2-yl)methyl)-4-(5-methylfuran-2-yl)pyrazolo[1,5-a][1,3,5]triazin-2-amine]
IC50 [1]: 0.68 nM | IC50 [2]: 293 nM | IC50 ratio (A1R/A2aR) [2]: 431^ | IC50 [3]: 1390 nM | IC50 ratio (A3R/A2aR) [3]: >10^3

COCCOCc1cccc(Cc2cnn3c(-c4ccc(C)o4)nc(N)nc23)n1 [Example 3, 8-((6-((2-Methoxyethoxy)methyl)pyridin-2-yl)methyl)-4-(5-methylfuran-2-yl)pyrazolo[1,5-a][1,3,5]triazin-2-amine]
IC50 [1]: 0.45 nM | IC50 [2]: 434 nM | IC50 ratio (A1R/A2aR) [2]: 964^ | IC50 [3]: 4120 nM | IC50 ratio (A3R/A2aR) [3]: >10^3

Cc1ccc(-c2nc(N)nc3c(Nc4cccc(CN5CCN(C)CC5)n4)cnn23)o1 [Example 29, 4-(5-Methylfuran-2-yl)-N^8-(6-((4-methylpiperazin-1-yl)methyl)pyridin-2-yl)pyrazolo[1,5-a][1,3,5]triazine-2,8-diamine]
IC50 [1]: 2.8 nM | IC50 [2]: 3690 nM | IC50 ratio (A1R/A2aR) [2]: >10^3 | IC50 [3]: 2180 nM | IC50 ratio (A3R/A2aR) [3]: 779^

Cc1ccc(-c2nc(N)nc3c(Cc4cccc(COC5CCCC5)n4)cnn23)o1 [Example 22, 8-((6-((Cyclopentyloxy)methyl)pyridin-2-yl)methyl)-4-(5-methylfuran-2-yl)pyrazolo[1,5-a][1,3,5]triazin-2-amine]
IC50 [1]: 0.57 nM | IC50 [2]: 303 nM | IC50 ratio (A1R/A2aR) [2]: 532^ | IC50 [3]: 1050 nM | IC50 ratio (A3R/A2aR) [3]: >10^3

Cc1ccc(-c2nc(N)nc3c(Nc4cccc(CN5CC6(COC6)C5)n4)cnn23)o1 [Example 32, N^8-(6-((2-Oxa-6-azaspiro[3.3]heptan-6-yl)methyl)pyridin-2-yl)-4-(5-methylfuran-2-yl)pyrazolo[1,5-a][1,3,5]triazine-2,8-diamine]
IC50 [1]: 3.74 nM | IC50 [2]: 287 nM | IC50 ratio (A1R/A2aR) [2]: 78^ | IC50 [3]: 5610 nM | IC50 ratio (A3R/A2aR) [3]: >10^3

Cc1ccc(-c2nc(N)nc3c(Nc4cccc(CN5CCOCC5)n4)cnn23)o1 [Example 27, 4-(5-Methylfuran-2-yl)-N^8-(6-(morpholinomethyl)pyridin-2-yl)pyrazolo[1,5-a][1,3,5]triazine-2,8-diamine]
IC50 [1]: 1.9 nM | IC50 [2]: 286 nM | IC50 ratio (A1R/A2aR) [2]: 150^ | IC50 [3]: 977 nM | IC50 ratio (A3R/A2aR) [3]: 514^
